The results in this text go back to patent publication US20230017045A1, “PYRIDINE AND PYRIMIDINE CARBOXYLATE HERBICIDES AND METHODS OF USE THEREOF” (Dow AgroSciences LLC, priority 2017, published 2023).

The subject of this assay is test plant species. The assay is described as follows: Post-emergent herbicidal activity test (greenhouse, foliar spray, visual growth reduction). Particulars: post-emergence, 336 h, 140 g ai/ha, 14 days after application. It counts as in vivo. Put shortly: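 Plants grown in greenhouse (15 h photoperiod, 23-29° C day/22-28° C night) to first or second true leaf stage were sprayed overhead with compound in acetone/water/isopropanol/DMSO/crop oil/X-77 carrier at 187 L/ha. Injury was scored visually after 14 d on a 0-100% scale versus solvent-blank and untreated controls.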

Setting [1] is: ALOMY: blackgrass (Alopecurus myosuroides), read-out: Visual Growth Reduction (%) 14 Days After Application, ALOMY.
[2] abbreviates: AMARE: redroot pigweed (Amaranthus retroflexus), read-out: Visual Growth Reduction (%) 14 Days After Application, AMARE.
[3] abbreviates: AVEFA: wild oat (Avena fatua), read-out: Visual Growth Reduction (%) 14 Days After Application, AVEFA.
[4] abbreviates: CHEAL: lambsquarters (Chenopodium album), read-out: Visual Growth Reduction (%) 14 Days After Application, CHEAL.
Setting [5] is: CIRAR: canada thistle (Cirsium arvense), read-out: Visual Growth Reduction (%) 14 Days After Application, CIRAR.
[6] abbreviates: CYPES: yellow nutsedge (Cyperus esculentus), read-out: Visual Growth Reduction (%) 14 Days After Application, CYPES.
Where [7] appears, read: DIGSA: crabgrass (Digitaria sanguinalis), read-out: Visual Growth Reduction (%) 14 Days After Application, DIGSA.
[8] abbreviates: ECHCG: barnyardgrass (Echinochloa crus-galli), read-out: Visual Growth Reduction (%) 14 Days After Application, ECHCG.
[9] abbreviates: IPOHE: ivy-leaf morning glory (Ipomoea hederacea), read-out: Visual Growth Reduction (%) 14 Days After Application, IPOHE.
[10] abbreviates: KCHSC: kochia (Bassia scoparia), read-out: Visual Growth Reduction (%) 14 Days After Application, KCHSC.
Setting [11] is: ORYSA: rice (Oryza sativa), read-out: Visual Growth Reduction (%) 14 Days After Application, ORYSA.
[12] abbreviates: SETFA: giant foxtail (Setaria faberi), read-out: Visual Growth Reduction (%) 14 Days After Application, SETFA.
[13] abbreviates: SORVU: grain sorghum (Sorghum vulgare), read-out: Visual Growth Reduction (%) 14 Days After Application, SORVU.
[14] abbreviates: STEME: common chickweed (Stellaria media), read-out: Visual Growth Reduction (%) 14 Days After Application, STEME.
The mark [15] stands for this setting: TRZAS: wheat, spring (Triticum aestivum), read-out: Visual Growth Reduction (%) 14 Days After Application, TRZAS.

Where two headings read alike, the source gives them in different places.

In the case of `O=C(O)c1nc(-c2ncc(C(F)(F)F)cc2Cl)ccc1Cl` [F164, 3′,5-Dichloro-5′-(trifluoromethyl)-[2,2′-bipyridine]-6-carboxylic acid], the pest or weed control at 140 g/ha is, setting by setting: under setting [1], 60 to 74%; under setting [2], 95 to 100%; under setting [3], 60 to 74%; under setting [4], 95 to 100%; under setting [5], 85 to 94%; under setting [6], 0 to 29%. In addition, the pest or weed control at 140 g/ha is, setting by setting: under setting [7], 95 to 100%; under setting [8], 85 to 94%; under setting [9], 95 to 100%; under setting [10], 95 to 100%; under setting [11], 60 to 74%; under setting [12], 95 to 100%. For the same compound, the pest or weed control at 140 g/ha is 85 to 94% under setting [13], 30 to 44% under setting [14] and 85 to 94% under setting [15].

On to `COC(=O)c1nc(-c2ccc(OC(F)F)cc2)c(F)cc1Cl` [F165, Methyl 3-chloro-6-(4-(difluoromethoxy)phenyl)-5-fluoropicolinate], for which the pest or weed control at 140 g/ha by setting is: under setting [1], 0 to 29%; under setting [2], 85 to 94%; under setting [3], 0 to 29%; under setting [4], 45 to 59%; under setting [5], 60 to 74%; under setting [6], 0 to 29%. The pest or weed control at 140 g/ha under setting [7] lay in the range of 75 to 84%; the pest or weed control at 140 g/ha under setting [8] was 60 to 74%; the pest or weed control at 140 g/ha under setting [9] lay in the range of 75 to 84%; the pest or weed control at 140 g/ha under setting [10] lay in the range of 30 to 44%; the pest or weed control at 140 g/ha under setting [11] was in the range of 0 to 29%; the pest or weed control at 140 g/ha under setting [12] was 75 to 84%. Further, the pest or weed control at 140 g/ha lay within 85 to 94% under setting [13], 0 to 29% under setting [14] and 0 to 29% under setting [15].

With `COC(=O)c1nc(-c2ccc(C(F)(F)F)cc2OC)c(F)cc1Cl` [F166, Methyl 3-chloro-5-fluoro-6-(2-methoxy-4-(trifluoromethyl)phenyl)picolinate], the pest or weed control at 140 g/ha reads like this: under setting [1], 0 to 29%; under setting [2], 95 to 100%; under setting [3], 75 to 84%; under setting [4], 85 to 94%; under setting [5], 85 to 94%; under setting [6], 0 to 29%. The pest or weed control at 140 g/ha was in the range of 75 to 84% under setting [7]; 95 to 100% under setting [8]; 95 to 100% under setting [9]; 95 to 100% under setting [10]; 0 to 29% under setting [11]; 85 to 94% under setting [12]. The pest or weed control at 140 g/ha reads like this: under setting [13], 85 to 94%; under setting [14], 30 to 44%; under setting [15], 75 to 84%.

In the case of `COC(=O)c1nc(-c2ccc(C(F)(F)F)nc2F)ccc1Cl` [F167, Methyl 5-chloro-2′-fluoro-6′-(trifluoromethyl)-[2,3′-bipyridine]-6-carboxylate], the pest or weed control at 140 g/ha under setting [1] is 0 to 29%; the pest or weed control at 140 g/ha under setting [2] is 60 to 74%; the pest or weed control at 140 g/ha under setting [3] was in the range of 0 to 29%; the pest or weed control at 140 g/ha under setting [4] lay in the range of 75 to 84%; the pest or weed control at 140 g/ha under setting [5] was in the range of 0 to 29%; the pest or weed control at 140 g/ha under setting [6] was 0 to 29%. Also, the pest or weed control at 140 g/ha runs as follows: under setting [8], 0 to 29%; under setting [9], 60 to 74%; under setting [10], 30 to 44%; under setting [11], 0 to 29%; under setting [12], 60 to 74%; under setting [13], 75 to 84%. For the same compound, the pest or weed control at 140 g/ha reads like this: under setting [14], 0 to 29%; under setting [15], 0 to 29%.

With `COC(=O)c1nc(-c2ccc(C#N)cc2)c(F)cc1Cl` [F168, Methyl 3-chloro-6-(4-cyanophenyl)-5-fluoropicolinate], the pest or weed control at 140 g/ha runs as follows: under setting [1], 0 to 29%; under setting [2], 30 to 44%; under setting [3], 0 to 29%; under setting [4], 45 to 59%; under setting [5], 0 to 29%; under setting [6], 0 to 29%. The pest or weed control at 140 g/ha reads like this: under setting [7], 60 to 74%; under setting [8], 30 to 44%; under setting [9], 60 to 74%; under setting [10], 0 to 29%; under setting [11], 0 to 29%; under setting [12], 30 to 44%. For the same compound, the pest or weed control at 140 g/ha is, setting by setting: under setting [13], 30 to 44%; under setting [14], 0 to 29%; under setting [15], 0 to 29%.

With `COC(=O)c1nc(-c2ccc(S(C)(=O)=O)cc2)c(F)cc1Cl` [F169, Methyl 3-chloro-5-fluoro-6-(4-(methylsulfonyl)phenyl)picolinate], the pest or weed control at 140 g/ha was in the range of 0 to 29% under setting [1]; 30 to 44% under setting [2]; 0 to 29% under setting [3]; 30 to 44% under setting [4]; 0 to 29% under setting [5]; 0 to 29% under setting [6]. Moreover, the pest or weed control at 140 g/ha runs as follows: under setting [7], 30 to 44%; under setting [8], 45 to 59%; under setting [9], 60 to 74%; under setting [10], 30 to 44%; under setting [11], 0 to 29%; under setting [12], 60 to 74%. Further, the pest or weed control at 140 g/ha runs as follows: under setting [13], 60 to 74%; under setting [14], 0 to 29%; under setting [15], 0 to 29%.

For the compound `COC(=O)c1nc(-c2ccc(C(F)(F)F)cc2C)c(F)cc1Cl` [F170, Methyl 3-chloro-5-fluoro-6-(2-methyl-4-(trifluoromethyl)phenyl)picolinate], the pest or weed control at 140 g/ha was 45 to 59% under setting [1]; 95 to 100% under setting [2]; 30 to 44% under setting [3]; 95 to 100% under setting [4]; 85 to 94% under setting [5]; 60 to 74% under setting [6]. In addition, the pest or weed control at 140 g/ha fell in the range of 85 to 94% under setting [7]; 60 to 74% under setting [8]; 95 to 100% under setting [9]; 60 to 74% under setting [10]; 0 to 29% under setting [11]; 85 to 94% under setting [12]. The pest or weed control at 140 g/ha was in the range of 85 to 94% under setting [13], 0 to 29% under setting [14] and 60 to 74% under setting [15].

For the compound `CCN(CC)c1c(Cl)ccc(-c2ccc(Cl)c(C(=O)OC)n2)c1F` [F171], the pest or weed control at 140 g/ha under setting [1] was in the range of 0 to 29%; the pest or weed control at 140 g/ha under setting [2] lay within 0 to 29%; the pest or weed control at 140 g/ha under setting [3] was 0 to 29%; the pest or weed control at 140 g/ha under setting [4] fell in the range of 60 to 74%; the pest or weed control at 140 g/ha under setting [5] fell in the range of 0 to 29%; the pest or weed control at 140 g/ha under setting [6] was in the range of 0 to 29%. The pest or weed control at 140 g/ha under setting [7] lay in the range of 0 to 29%; the pest or weed control at 140 g/ha under setting [8] was in the range of 0 to 29%; the pest or weed control at 140 g/ha under setting [9] was in the range of 0 to 29%; the pest or weed control at 140 g/ha under setting [10] fell in the range of 30 to 44%; the pest or weed control at 140 g/ha under setting [11] lay in the range of 0 to 29%; the pest or weed control at 140 g/ha under setting [12] was in the range of 0 to 29%. The pest or weed control at 140 g/ha is 0 to 29% under setting [13], 0 to 29% under setting [14] and 0 to 29% under setting [15].

As to `COC(=O)c1nc(-c2cc3c(cc2F)OC(F)(F)O3)ccc1Cl` [F172, Methyl 3-chloro-6-(2,2,6-trifluorobenzo[d] [1,3]dioxol-5-yl)picolinate], the pest or weed control at 140 g/ha under setting [1] was 30 to 44%; the pest or weed control at 140 g/ha under setting [2] was 95 to 100%; the pest or weed control at 140 g/ha under setting [3] was in the range of 30 to 44%; the pest or weed control at 140 g/ha under setting [4] lay within 85 to 94%; the pest or weed control at 140 g/ha under setting [5] was in the range of 60 to 74%; the pest or weed control at 140 g/ha under setting [6] is 75 to 84%. Also, the pest or weed control at 140 g/ha under setting [7] lay within 85 to 94%; the pest or weed control at 140 g/ha under setting [8] lay in the range of 75 to 84%; the pest or weed control at 140 g/ha under setting [9] was in the range of 95 to 100%; the pest or weed control at 140 g/ha under setting [10] was in the range of 30 to 44%; the pest or weed control at 140 g/ha under setting [11] lay within 0 to 29%; the pest or weed control at 140 g/ha under setting [12] lay in the range of 45 to 59%. The pest or weed control at 140 g/ha by setting is: under setting [13], 95 to 100%; under setting [14], 0 to 29%; under setting [15], 45 to 59%.
